Square brackets hold non-standard residues; d marks the D form. Ends that are not written are not given here. Peptide text beside a SMILES is read from it. Phe(4-NO2) = N[C@@H](Cc1ccc([N+](=O)[O-])cc1)C(=O)O; Bta = N[C@@H](Cc1csc2ccccc12)C(=O)O; Phg = N[C@H](C(=O)O)c1ccccc1; Nle = CCCC[C@H](N)C(=O)O; Nva = CCC[C@H](N)C(=O)O
Key:
HLA-A*0201 = HLA-A*0201 (Homo sapiens, UniProt P04439, D140Y/D185E/D98H/E176V/E277Q/G131W/G231S/I119V/I121R/I166T/I218V/L300P/L318F/N151K/N90K/P208A/P217A/Q86G/Q94H/R138H/R169H/T345S); assay: Peptide binding using T2 cells (SSX-2 41-49 analogs); settings: for Relative affinity (1/RA): half maximal binding of wild-type peptide relative to analog, native = 1.0
Source text: Thus, at limiting concentrations of peptide, it is a measurement of Kon mostly and at saturation levels of peptide it is a measurement of both Kon and Koff.

[1] = test system: T cell lines against a natural (non-mutated) epitope (SSX-241-49); assay: Cross-reactivity and functional avidity: IFN-gamma from T cell lines against natural SSX-2 41-49 epitope; assay type: cell-based, HHD transgenic mice; settings: for Cross-reactivity and fct avidity (native to analogs)*: IFN-gamma from T cell line raised against native SSX-2 41-49, native = 1, lower = more active;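 for all read-outs here: peptide analogs tested ex vivo with competent APCs, IFN-gamma in supernatant measured by ELISA, readouts include minimal triggering concentration, peak effect and concentration at peak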
[2] = test system: T cells that recognized native PSMA288-297 peptide; assay: Peptide immunization with PSMA analogs, IFN-gamma ELISPOT against native peptide; assay type: in vivo, HHD transgenic mice; settings: peptide + pI:C intranodal immunization
Experimental: Groups of HHD transgenic mice (n=8) were immunized with peptide (natural epitope PSMA288-297, or analogs bearing substitutions at primary or secondary anchor residues) by direct inoculation into the inguinal lymph nodes, with 25 μg in 25 μl of PBS+12.5 μg of pI:C to each lymph node at day 0, 3, 14 and 17.
Mice were sacrificed at 10 days after the last boost, and splenocytes prepared and assessed for IFN-γ production by ELISPOT analysis. […] At 48 hours after incubation, the assay was developed and the frequency of cytokine-producing T cells that recognized native PSMA288-297 peptide was automatically counted. The data is represented in FIG. 22 as the number of spot forming colonies/well (mean of triplicates±SD). […] To the extent that the poor immunogenicity of the native epitope reflects tolerance, the improved activity of these analogs represents tolerance breaking.

| Compound | Relative affinity (1/RA) (HLA-A*0201) | Cross-reactivity and fct avidity (native to analogs)* [1] | binding affinity (and stability) with HLA-A*0201 relative to wild-type, in words (HLA-A*0201; SSX-2 41-49 analogs) | cross-reactivity / IFN-gamma inducing activity relative to wild-type, in words ([1]; SSX-2 41-49 analogs, wild-type specific T cells) | IFN-γ ELISPOT response against native epitope, in words [2] |
| --- | --- | --- | --- | --- | --- |
| CC[C@H](C)[C@H](NC(=O)[C@H](CCCCN)NC(=O)[C@H](CCC(=O)O)NC(=O)[C@H](CO)NC(=O)[C@H](C)NC(=O)[C@@H](N)Cc1ccc(OC)cc1)C(=O)N[C@@H](Cc1ccccc1)C(=O)N[C@@H](Cc1ccc(O)cc1)C(=O)N[C@H](C(=O)O)C(C)C [SSX2 41-49 (K41(O-methyl Tyr))] (H-Y(Me)ASEKIFYV-OH) | 0.8 | 3 |  |  |  |
| CC[C@H](C)[C@H](NC(=O)[C@H](CCCCN)NC(=O)[C@H](CCC(=O)O)NC(=O)[C@H](CO)NC(=O)[C@H](C)NC(=O)[C@@H](N)Cc1ccc([N+](=O)[O-])cc1)C(=O)N[C@@H](Cc1ccccc1)C(=O)N[C@@H](Cc1ccc(O)cc1)C(=O)N[C@H](C(=O)O)C(C)C [SSX2 41-49 (K41(Phe-4N02))] (H-[Phe(4-NO2)]ASEKIFYV-OH) | 1.1 | 3 | about the same as that of wild-type peptide | much lower concentration |  |
| CC[C@H](C)[C@H](NC(=O)[C@H](CCCCN)NC(=O)[C@H](CCC(=O)O)NC(=O)[C@H](CO)NC(=O)[C@H](C)NC(=O)[C@@H](N)c1ccccc1)C(=O)N[C@@H](Cc1ccccc1)C(=O)N[C@@H](Cc1ccc(O)cc1)C(=O)N[C@H](C(=O)O)C(C)C [SSX2 41-49 (K41(Phg))] (H-[Phg]ASEKIFYV-OH) | 2.5 | 0.1 |  |  |  |
| CC[C@H](C)[C@H](NC(=O)[C@H](CCCCN)NC(=O)[C@H](CCC(=O)O)NC(=O)[C@H](CO)NC(=O)[C@H](C)NC(=O)[C@@H](N)Cc1csc2ccccc12)C(=O)N[C@@H](Cc1ccccc1)C(=O)N[C@@H](Cc1ccc(O)cc1)C(=O)N[C@H](C(=O)O)C(C)C [SSX2 41-49 (K41(b-(3-benzothienyl)Ala))] (H-[Bta]ASEKIFYV-OH) | 0.6 | 10 |  |  |  |
| CCCC[C@H](NC(=O)[C@H](CO)NC(=O)[C@@H](NC(=O)[C@@H](N)Cc1ccccc1)C(C)C)C(=O)N[C@@H](CCCCN)C(=O)N[C@H](C(=O)N[C@@H](Cc1ccccc1)C(=O)N[C@@H](Cc1ccc(O)cc1)C(=O)N[C@H](C(=O)O)C(C)C)[C@@H](C)CC [SSX2 41-49 (K41F, A42V, E44Nle), FVS(Nle)KIFYV] (H-FVS[Nle]KIFYV-OH) | 1.1 | 10 |  |  |  |
| CCC[C@H](NC(=O)[C@H](CO)NC(=O)[C@@H](NC(=O)[C@@H](N)Cc1ccccc1)C(C)C)C(=O)N[C@@H](CCCCN)C(=O)N[C@H](C(=O)N[C@@H](Cc1ccccc1)C(=O)N[C@@H](Cc1ccc(O)cc1)C(=O)N[C@H](C(=O)O)C(C)C)[C@@H](C)CC [SSX2 41-49 (K41F, A42V, E44Nva), FVS(Nva)KIFYV] (H-FVS[Nva]KIFYV-OH) | 3.9 | 3 |  |  |  |
| CCCC[C@H](NC(=O)[C@H](CCCCN)NC(=O)[C@H](CCC(=O)O)NC(=O)[C@H](CO)NC(=O)[C@@H](NC(=O)[C@@H](N)Cc1ccccc1)C(C)C)C(=O)N[C@@H](Cc1ccccc1)C(=O)N[C@@H](Cc1ccc(O)cc1)C(=O)N[C@H](C(=O)O)C(C)C [SSX2 41-49 (K41F, A42V, I46Nle), FVSEK(Nle)FYV] (H-FVSEK[Nle]FYV-OH) | 1.1 | 10 |  |  |  |
| CCC[C@H](NC(=O)[C@H](CCCCN)NC(=O)[C@H](CCC(=O)O)NC(=O)[C@H](CO)NC(=O)[C@@H](NC(=O)[C@@H](N)Cc1ccccc1)C(C)C)C(=O)N[C@@H](Cc1ccccc1)C(=O)N[C@@H](Cc1ccc(O)cc1)C(=O)N[C@H](C(=O)O)C(C)C [SSX2 41-49 (K41F, A42V, I46Nva), FVSEK(Nva)FYV] (H-FVSEK[Nva]FYV-OH) | 2.4 | 1 |  |  |  |
| CC[C@H](C)[C@H](NC(=O)[C@H](CCCCN)NC(=O)[C@H](CCC(=O)O)NC(=O)[C@H](CO)NC(=O)[C@@H](NC(=O)[C@@H](N)Cc1ccccc1)C(C)C)C(=O)N[C@@H](Cc1ccccc1)C(=O)N[C@@H](Cc1ccccc1)C(=O)N[C@H](C(=O)O)C(C)C [SSX2 41-49 (K41F, A42V, Y48F)] | 1.7 | 10 |  |  |  |
| CC[C@H](C)[C@H](NC(=O)[C@H](CCCCN)NC(=O)[C@H](CCC(=O)O)NC(=O)[C@H](CO)NC(=O)[C@@H](NC(=O)[C@@H](N)Cc1ccccc1)C(C)C)C(=O)N[C@@H](Cc1ccccc1)C(=O)N[C@H](C(=O)N[C@H](C(=O)O)C(C)C)c1ccccc1 [SSX2 41-49 (K41F, A42V, Y48Phg), FVSEKIF(Phg)V] (H-FVSEKIF[Phg]V-OH) | 2.5 | >10 |  |  |  |
| CC[C@H](C)[C@H](NC(=O)[C@H](CCCCN)NC(=O)[C@H](CCC(=O)O)NC(=O)[C@H](CO)NC(=O)[C@@H](NC(=O)[C@@H](N)Cc1ccc(O)cc1)C(C)C)C(=O)N[C@@H](Cc1ccccc1)C(=O)N[C@@H](Cc1ccc(O)cc1)C(=O)N[C@H](C(=O)O)C(C)C [SSX2 41-49 (K41Y, A42V)] | 1.0 | 0.1 |  |  |  |
| FISEKIFYV [SSX2 41-49 (K41F, A42I)] | 2.7 | 0.3 |  |  |  |
| FVSDKIFYV [SSX2 41-49 (K41F, A42V, E44D)] | 1.1 | >10 |  |  |  |
| FVSEKIFSV [SSX2 41-49 (K41F, A42V, Y48S)] | 3.9 | >10 |  |  |  |
| FVSEKIFTV [SSX2 41-49 (K41F, A42V, Y48T)] | 3.8 | >10 |  |  |  |
| FVSEKIFYM [SSX2 41-49 (K41F, A42V, V49M)] | 0.8 | >10 |  |  |  |
| FVSEKIFYV [SSX2 41-49 (K41F, A42V)] | 3.1 | 0.1 |  |  |  |
| FVSEKLFSA | 2.4 | >10 |  |  |  |

| Compound | Relative affinity (1/RA) (HLA-A*0201) | Cross-reactivity and fct avidity (native to analogs)* [1] | binding affinity (and stability) with HLA-A*0201 relative to wild-type, in words (HLA-A*0201; SSX-2 41-49 analogs) | cross-reactivity / IFN-gamma inducing activity relative to wild-type, in words ([1]; SSX-2 41-49 analogs, wild-type specific T cells) | IFN-γ ELISPOT response against native epitope, in words [2] |
| --- | --- | --- | --- | --- | --- |
| FVSEKLFTV [SSX2 41-49 (K41F, A42V, I46L, Y48T)] | 2.6 | >10 |  |  |  |
| FVSEKLFYV [SSX2 41-49 (K41F, A42V, I46L)] | 1.9 | 3 |  |  |  |
| FVSQKIFYV [SSX2 41-49 (K41F, A42V, E44Q)] | 0.4 | 10 |  |  |  |
| GLWSIPVHPI [Peptide P290W] |  |  |  |  | increased priming of immune responses against the native epitope |
| KASEKIFYI [SSX2 41-49 (V49I)] | 1.0 | 10 |  |  |  |
| KISEKIFYV [SSX2 41-49 (A42I)] | 1.7 | 3 |  |  |  |
| KLSEKIFYI [SSX2 41-49 (A42L, V49I)] | 2.6 | 0.03 |  |  |  |
| KLSEKIFYV [SSX2 41-49-NH2 (A42L)] |  | 3 |  |  |  |
| KMSEKIFYV [SSX2 41-49 (A42M)] | 1.7 | 0.1 |  |  |  |
| KNal-1SEKIFYV [SSX2 41-49 (A42(Nal-1))] |  | >10 |  |  |  |
| KVSEKIFYI [SSX2 41-49 (A42V, V491)] |  | 0.3 |  |  |  |
| KVSEKIFYV [SSX2 41-49-NH2 (A42V)] |  | 10 |  |  |  |
| WLSEKIFYV [SSX2 41-49 (K41W, A42L)] | 3.3 | 0.3 |  |  |  |
| WMSEKIFYV [SSX2 41-49 (K41W, A42M)] | 2.9 | 1 |  |  |  |
| WVSEKIFYV [SSX2 41-49 (K41W, A42V)] | 3.0 | 1 |  |  |  |
| YLSEKIFYV [SSX2 41-49 (K41Y, A42L)] | 1.2 |  |  |  |  |
| YMSEKIFYV [SSX2 41-49 (K41Y, A42M)] | 0.6 | 3 |  |  |  |
